Among the data in ChEMBL document CHEMBL1155266, “Synthesis and biological evaluation of new 4-carboxyl quinoline derivatives as cyclooxygenase-2 inhibitors” (Bioorg Med Chem, 2009) are IC50 values, retold here.

In the test the target is T1, Prostaglandin G/H synthase 1 (Ovis aries, UniProt P05979).
T1 sequence (P05979 whole entry): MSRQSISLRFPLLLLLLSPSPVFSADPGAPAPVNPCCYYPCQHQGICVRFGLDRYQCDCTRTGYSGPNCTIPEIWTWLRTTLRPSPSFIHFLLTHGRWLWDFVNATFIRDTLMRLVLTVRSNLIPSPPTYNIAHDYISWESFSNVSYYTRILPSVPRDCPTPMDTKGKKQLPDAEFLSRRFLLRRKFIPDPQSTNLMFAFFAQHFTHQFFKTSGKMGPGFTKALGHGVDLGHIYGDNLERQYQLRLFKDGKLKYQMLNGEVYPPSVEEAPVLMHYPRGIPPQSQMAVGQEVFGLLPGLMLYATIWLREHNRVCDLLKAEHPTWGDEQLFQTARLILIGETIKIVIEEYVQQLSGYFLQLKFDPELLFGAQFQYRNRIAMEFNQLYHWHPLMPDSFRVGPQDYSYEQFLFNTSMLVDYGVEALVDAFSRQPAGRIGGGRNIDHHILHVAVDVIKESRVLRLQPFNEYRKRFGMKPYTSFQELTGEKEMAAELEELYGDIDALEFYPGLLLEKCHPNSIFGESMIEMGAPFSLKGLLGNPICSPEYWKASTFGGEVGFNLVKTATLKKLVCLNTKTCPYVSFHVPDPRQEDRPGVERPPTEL
Description: Inhibition of ovine COX1 by chemiluminescent enzyme assay

In general, IC50 refers to the concentration at which inhibition is half-maximal. A lower IC50 goes with greater potency in that assay. Regarding `Cc1cccc2c(C(=O)O)cc(-c3ccc(S(C)(=O)=O)cc3)nc12`, the IC50 was 14.2 µM.

As to `CS(=O)(=O)c1ccc(-c2cc(C(=O)O)c3ccc4ccccc4c3n2)cc1`, the midpoint of inhibition, the IC50, lay at 17.6 µM. The IC50 values of the last two compounds are within 1.5-fold of each other. For `Cc1ccc2c(C(=O)O)cc(-c3ccc(S(C)(=O)=O)cc3)nc2c1C`, the midpoint of inhibition, the IC50, lay at 14.5 µM. The compound `CS(=O)(=O)c1ccc(-c2cc(C(=O)O)c3cccc(-c4ccccc4)c3n2)cc1` yielded an IC50 of 14.7 µM. This IC50 and that of the compound before are within 1.5-fold of each other. In turn, `CS(=O)(=O)c1ccc(-c2cc(C(=O)O)c3ccccc3n2)cc1` registered an IC50 of 13.4 µM.

`CS(=O)(=O)c1ccc(-c2cc(C(=O)O)c3ccc4c(c3n2)CCCC4)cc1` gave a half-maximal inhibitory concentration (IC50) of 22.1 µM. Compared with the last compound, the IC50 is about 1.6-fold higher.
